This is an account of results in ChEMBL document CHEMBL1133332, “Conversion of a polysaccharide to nitric oxide-releasing form. Dual-mechanism anticoagulant activity of diazeniumdiolated heparin” (2000).

The structures appear in SMILES notation.

The species named for assay [1] is Homo sapiens. Put plainly: Compound (at 25 micro g/ml) was tested for antithrombotic activity in presence of heparin. Format: functional.
The species named for assay [2] is Homo sapiens. As to the kind of experiment: compound (at 25 micro g/ml) was tested for antithrombotic activity. Format: functional.

In the case of `CO[C@H]1O[C@H](CN2CCNCC2)[C@@H](O[C@@H]2O[C@H](C(=O)O)[C@@H](OC)[C@H](O)[C@H]2O)[C@H](OS(=O)(=O)O)[C@H]1NS(=O)(=O)O` [HEPARIN/DIAZENIUMDIOLATE CONJUGATE], the Thrombin time in assay [1] was determined as 31 s. The same measure, in the same setting: for `COCO/N=[N+](\[O-])N1CCN(C[C@H]2O[C@H](OC)[C@H](NS(=O)(=O)O)[C@@H](OS(=O)(=O)O)[C@@H]2O[C@@H]2O[C@H](C(=O)O)[C@@H](OC)[C@H](O)[C@H]2O)CC1` [HEPARIN/DIAZENIUMDIOLATE CONJUGATE] the value was 80 s. In assay [2], `CO[C@H]1O[C@H](COS(=O)(=O)O)[C@@H](O[C@@H]2O[C@H](C(=O)O)[C@@H](OC)[C@H](O)[C@H]2O)[C@H](OS(=O)(=O)O)[C@H]1NS(=O)(=O)O` [HEPARIN/DIAZENIUMDIOLATE CONJUGATE] displayed a Thrombin time of 92 s.
